Assays:
mice = test: Kidney toxicity determined by urine test; format: in vivo, mouse; conditions: for glucose in urine (in words): i.p., all doses
Description: (2) Kidney toxicity determined by urine test
PQQ.2Na, PQQ trimethyl ester and PQQ triallyl ester were intraperitoneally administered to mice and they were bred in the same manner as in the above acute toxicity test. The doses per kg of body weight of mouse were 20, 40 and 80 mg for PQQ.2Na and 20, 40, 80, 160 and 200 mg for PQQ triesters. Urine was collected every day and glucose concentration was examined using clinical examination reagent (trademark: […] II manufactured by Miles.Sankyo Co.).

[1] = test system: D-galactosamine-induced liver diseases; test: Pharmacological effect (1) on D-galactosamine-induced liver diseases; format: in vivo, SD rats; conditions: D-galactosamine 1 g/kg rat s.c., 23 hours, average of five rats; for Total bilirubin in serum: D-galactosamine alone 1.0; for GPT in serum: D-galactosamine alone 552; for GOT in serum: D-galactosamine alone 1067
Description: Pharmacological effect (1) of PQQ triesters on D-galactosamine-induced liver diseases;
Forty SD rats (male 7 weeks old, body weight: about 240 g; supplied by Japan Charles River Co.) were divided to eight groups (A-H) each consisting of five rats. All rats were fasted for 16 hours and 1.2 ml of a solution containing 0.4 mg/ml of PQQ trimethyl ester was intraperitoneally administered to the rats of group C, 1.2 ml of a solution containing 1.0 mg/ml of PQQ trimethyl ester was intraperitoneally administered to the rats of group D, 1.2 ml of a solution containing 2.0 mg/ml of PQQ trimethyl ester was intraperitoneally administered to the rats of group E, 1.2 ml of a solution containing 0.4 mg/ml of PQQ triallyl ester was intraperitoneally administered to the rats of group F, 1.2 ml of a solution containing 1.0 mg/ml of PQQ triallyl ester was intraperitoneally administered to the rats of group G, and 1.2 ml of a solution containing 2.0 mg/ml of PQQ triallyl ester was intraperitoneally administered to the rats of group H and furthermore, after 40 minutes, the same PQQ triesters in the same doses as above were intraperitoneally administered to respective rats. In these cases, the PQQ triesters were suspended in physiological saline containing 1% Tween 80 and administered to the rats. 1.2 ml of physiological saline was intraperitoneally administered to the rats of group B in place of PQQ triesters. Furthermore, after 20 minutes, 1.2 ml of a solution of 2 g of D-galactosamine in 10 ml of physiological saline was subcutaneously injected to the rats of groups B-H. Neither PQQ triesters nor D-galactosamine were administered to the rats of group A.
After 23 hours from administration of D-galactosamine, blood was collected from abdominal main artery and serum was obtained by centrifugation therefrom.
GPT, GOT and amount of total bilirubin in the serum were measured by clinical examination reagent (trademark: FUJI DRYCHEMSLIDE manufactured by Fuji Photo Film Co., Ltd.). The results are shown in Table 7 by average value of five rats.

Solubility = format: physicochemical
[2] = test system: carbon tetrachloride (CCl4)-induced liver diseases; test: Pharmacological activity (1) on carbon tetrachloride (CCl4)-induced liver diseases; format: in vivo, SD rats; conditions: i.p. 5 mg/kg rat twice, CCl4 1 ml/kg rat, 24 hours, average of five rats; for Total bilirubin in serum: CCl4 alone 1.2; for GPT in serum: CCl4 alone 818; for GOT in serum: CCl4 alone 3308
Description: Pharmacological activity (1) of PQQ triesters on carbon tetrachloride (CCl4)-induced liver diseases:
Twenty SD rats (male, 7 weeks old, body weight: about 220 g; supplied by Japan Charles River Co.) were divided to four groups (A-D) each consisting of five rats. All rats were fasted for 16 hours and 1.1 ml of a solution containing 1 mg/ml of PQQ trimethyl ester was intraperitoneally administered to the rats of group C and 1.1 ml of a solution containing 1 mg/ml of PQQ triallyl ester was intraperitoneally administered to the rats of group D and after lapse of 40 minutes, the same PQQ triesters in the same dose as above was intraperitoneally administered, respectively. For administration, the PQQ triesters were suspended in physiological saline containing 1 % Tween 80, 1.1 ml of physiological saline was intraperitoneally administered to the rats of group B in place of PQQ triesters. Furthermore, after 20 minutes, 2.2 ml of 10 vol% carbon tetrachloride (solution in olive oil) was administered to stomach of the rats of groups B-D. Neither PQQ triesters nor carbon tetrachloride were administered to the rats of group A.
After 24 hours from administration of carbon tetrachloride, blood was collected from abdominal main artery and serum was obtained by centrifugation therefrom.
GPT, GOT and amount of total bilirubin in the serum were measured by clinical examination reagent (trademark: FUJI DRYCHEMSLIDE manufactured by Fuji Photo Film Co., Ltd.). The results are shown in Table 5 by average value of five rats.

## C=CCOC(=O)c1cc(C(=O)OCC=C)c2c(n1)C(=O)C(=O)c1cc(C(=O)OCC=C)[nH]c1-2 [PQQ triallyl ester]
mice; i.p. 20 mg/kg, day 1
  glucose in urine: -
mice; i.p. 20 mg/kg, day 2
  glucose in urine: -
mice; i.p. 20 mg/kg, day 3
  glucose in urine: -
mice; i.p. 20 mg/kg, day 6
  glucose in urine: -
mice; i.p. 20 mg/kg, day 7
  glucose in urine: -
mice; i.p. 20 mg/kg, day 8
  glucose in urine: -
mice; i.p. 20 mg/kg, day 10
  glucose in urine: -
mice; i.p. 20 mg/kg, day 13
  glucose in urine: -
mice; i.p. 20 mg/kg, day 14
  glucose in urine: -
mice; i.p. 40 mg/kg, day 1
  glucose in urine: -
mice; i.p. 40 mg/kg, day 2
  glucose in urine: -
mice; i.p. 40 mg/kg, day 3
  glucose in urine: -
mice; i.p. 40 mg/kg, day 6
  glucose in urine: -
mice; i.p. 40 mg/kg, day 7
  glucose in urine: -
mice; i.p. 40 mg/kg, day 8
  glucose in urine: -
mice; i.p. 40 mg/kg, day 10
  glucose in urine: -
mice; i.p. 40 mg/kg, day 13
  glucose in urine: -
mice; i.p. 40 mg/kg, day 14
  glucose in urine: -
mice; i.p. 80 mg/kg, day 1
  glucose in urine: -
mice; i.p. 80 mg/kg, day 2
  glucose in urine: -
mice; i.p. 80 mg/kg, day 3
  glucose in urine: -
mice; i.p. 80 mg/kg, day 6
  glucose in urine: -
mice; i.p. 80 mg/kg, day 7
  glucose in urine: -
mice; i.p. 80 mg/kg, day 8
  glucose in urine: -
mice; i.p. 80 mg/kg, day 10
  glucose in urine: -
mice; i.p. 80 mg/kg, day 13
  glucose in urine: -
mice; i.p. 80 mg/kg, day 14
  glucose in urine: -
mice; i.p. 160 mg/kg, day 1
  glucose in urine: -
mice; i.p. 160 mg/kg, day 2
  glucose in urine: -
mice; i.p. 160 mg/kg, day 3
  glucose in urine: -
mice; i.p. 160 mg/kg, day 6
  glucose in urine: -
mice; i.p. 160 mg/kg, day 7
  glucose in urine: -
mice; i.p. 160 mg/kg, day 8
  glucose in urine: -
mice; i.p. 160 mg/kg, day 10
  glucose in urine: -
mice; i.p. 160 mg/kg, day 13
  glucose in urine: -
mice; i.p. 160 mg/kg, day 14
  glucose in urine: -
mice; i.p. 200 mg/kg, day 1
  glucose in urine: -
mice; i.p. 200 mg/kg, day 2
  glucose in urine: -
mice; i.p. 200 mg/kg, day 3
  glucose in urine: -
mice; i.p. 200 mg/kg, day 6
  glucose in urine: -
mice; i.p. 200 mg/kg, day 7
  glucose in urine: -
mice; i.p. 200 mg/kg, day 8
  glucose in urine: -
mice; i.p. 200 mg/kg, day 10
  glucose in urine: -
mice; i.p. 200 mg/kg, day 13
  glucose in urine: -
mice; i.p. 200 mg/kg, day 14
  glucose in urine: -
mice
  glucose in urine (in words): no glucose was detected
[1]; i.p. 2 mg/kg rat twice
  Total bilirubin in serum: 0.8 mg/dL
  GPT in serum: 538 U/l
  GOT in serum: 1132 U/l
[1]; i.p. 5 mg/kg rat twice
  Total bilirubin in serum: 0.8 mg/dL
  GPT in serum: 322 U/l
  GOT in serum: 648 U/l
[1]; i.p. 10 mg/kg rat twice
  Total bilirubin in serum: 0.6 mg/dL
  GPT in serum: 120 U/l
  GOT in serum: 480 U/l
Solubility; acetone
  Solubility: Very soluble
Solubility; ethanol
  Solubility: Very soluble
Solubility; methanol
  Solubility: Very soluble
Solubility; water
  Solubility: hardly soluble
[2]
  Total bilirubin in serum: 0.8 mg/dL
  GPT in serum: 371 U/l
  GOT in serum: 2150 U/l

## COC(=O)c1cc(C(=O)OC)c2c(n1)C(=O)C(=O)c1cc(C(=O)OC)[nH]c1-2 [PQQ trimethyl ester]
mice; i.p. 20 mg/kg, day 1
  glucose in urine: -
mice; i.p. 20 mg/kg, day 2
  glucose in urine: -
mice; i.p. 20 mg/kg, day 3
  glucose in urine: -
mice; i.p. 20 mg/kg, day 6
  glucose in urine: -
mice; i.p. 20 mg/kg, day 7
  glucose in urine: -
mice; i.p. 20 mg/kg, day 8
  glucose in urine: -
mice; i.p. 20 mg/kg, day 10
  glucose in urine: -
mice; i.p. 20 mg/kg, day 13
  glucose in urine: -
mice; i.p. 20 mg/kg, day 14
  glucose in urine: -
mice; i.p. 40 mg/kg, day 1
  glucose in urine: -
mice; i.p. 40 mg/kg, day 2
  glucose in urine: -
mice; i.p. 40 mg/kg, day 3
  glucose in urine: -
mice; i.p. 40 mg/kg, day 6
  glucose in urine: -
mice; i.p. 40 mg/kg, day 7
  glucose in urine: -
mice; i.p. 40 mg/kg, day 8
  glucose in urine: -
mice; i.p. 40 mg/kg, day 10
  glucose in urine: -
mice; i.p. 40 mg/kg, day 13
  glucose in urine: -
mice; i.p. 40 mg/kg, day 14
  glucose in urine: -
mice; i.p. 80 mg/kg, day 1
  glucose in urine: -
mice; i.p. 80 mg/kg, day 2
  glucose in urine: -
mice; i.p. 80 mg/kg, day 3
  glucose in urine: -
mice; i.p. 80 mg/kg, day 6
  glucose in urine: -
mice; i.p. 80 mg/kg, day 7
  glucose in urine: -
mice; i.p. 80 mg/kg, day 8
  glucose in urine: -
mice; i.p. 80 mg/kg, day 10
  glucose in urine: -
mice; i.p. 80 mg/kg, day 13
  glucose in urine: -
mice; i.p. 80 mg/kg, day 14
  glucose in urine: -
mice; i.p. 160 mg/kg, day 1
  glucose in urine: -
mice; i.p. 160 mg/kg, day 2
  glucose in urine: -
mice; i.p. 160 mg/kg, day 3
  glucose in urine: -
mice; i.p. 160 mg/kg, day 6
  glucose in urine: -
mice; i.p. 160 mg/kg, day 7
  glucose in urine: -
mice; i.p. 160 mg/kg, day 8
  glucose in urine: -
mice; i.p. 160 mg/kg, day 10
  glucose in urine: -
mice; i.p. 160 mg/kg, day 13
  glucose in urine: -
mice; i.p. 160 mg/kg, day 14
  glucose in urine: -
mice; i.p. 200 mg/kg, day 1
  glucose in urine: -
mice; i.p. 200 mg/kg, day 2
  glucose in urine: -
mice; i.p. 200 mg/kg, day 3
  glucose in urine: -
mice; i.p. 200 mg/kg, day 6
  glucose in urine: -
mice; i.p. 200 mg/kg, day 7
  glucose in urine: -
mice; i.p. 200 mg/kg, day 8
  glucose in urine: -
mice; i.p. 200 mg/kg, day 10
  glucose in urine: -
mice; i.p. 200 mg/kg, day 13
  glucose in urine: -
mice; i.p. 200 mg/kg, day 14
  glucose in urine: -
mice
  glucose in urine (in words): no glucose was detected
[1]; i.p. 2 mg/kg rat twice
  Total bilirubin in serum: 0.9 mg/dL
  GPT in serum: 447 U/l
  GOT in serum: 970 U/l
[1]; i.p. 5 mg/kg rat twice
  Total bilirubin in serum: 0.5 mg/dL
  GPT in serum: 182 U/l
  GOT in serum: 544 U/l
[1]; i.p. 10 mg/kg rat twice
  Total bilirubin in serum: 0.7 mg/dL
  GPT in serum: 388 U/l
  GOT in serum: 833 U/l
[2]
  Total bilirubin in serum: 0.7 mg/dL
  GPT in serum: 505 U/l
  GOT in serum: 2193 U/l
